Here are results for two compounds from patent US6585987B1, “Complexes of hyaluronic acid/carnitines and pharmaceutical and cosmetic compositions” (Continental Projects Limited, priority 1998, dated 2003).

The test system of test [1] is Dithranol induced inflammation. Briefly: Antiinflammatory activity on dithranol induced cutaneous inflammation. Type of test: in vivo, Guinea pigs. The settings on record: 48 hours. An excerpt:
A specific cutaneous inflammatory reaction, caused by different phlogogenic factors both of exogenous and endogenous origin, including the formation of free radicals, lipoperoxides, prostaglandins and cytokines, is that induced by intradermal injection of dithranol, as described by Mustakallio (Mustakallio K., DERMATOVENER, 54, 125, 1979).
Dithranol is intradermally injected at the dose of 20 mcg on the back of shaved Guinea pigs.
On the opposite side of the back, before the injection of the same amount of dithranol, HA alone or acetyl-L-carnitine (AC) alone, or HA and AC together or the HA and AC complex, are spread.
A mixture of lanolin and ethylene glycol monostearate was used to spread these compounds.

In test [2] the test system is barrier function of corneal epithelium. The experiment in a line: Clinical trial in dry eye syndrome: barrier function of corneal epithelium (fluorescein test, fluorophotometry). It counts as in vivo, human. Conditions: 27 dry eye patients, collyrium for 4 weeks; improvement after 2 weeks in lower cornea areas, 4 weeks in central ones. An excerpt: Dryness of the conjunctiva, isolated or in association with other ocular or extra-ocular disease, is recognizedly capable of inducing local damage on corneal epithelium which can, inter alia, lose its barrier function. […] According to the protocol, each patient received for 4 weeks a medication (hyaluronic acid) in the form of collyrium in one eye and a different treatment (hyaluronic acid/carnitine) in the other eye, so that each patient also acted as the control. Subjective evaluation and clinical examinations, associated with a fluorescein test, were carried out 2 weeks after the beginning of the treatment as well as at its end (4 weeks).

In test [3] the test system is cartilage explants. Briefly: PG and HA synthesis in cartilage explants (pulse studies, 3H-glucosamine). Type of test: cell-based, human. Here is the method:
(§1) Thirty-five subjects were included in the study. Exclusion criteria were septicaemia, connective tissue disordes, rheumatoid arthritis, crystal deposition diseases, known hereditary or congenital defects, immobilization for several weeks as well as treatment with corticosteroids and cytotoxic drugs.
(§2) Tissue specimens obtained from each donor were cut into pieces of 3-6 mg in Dulbecco's modified Eagle's medium (DMEM) supplemented with penicillin (5.000 i.u. ml^−1) The tissue was washed 3 times with this culture medium. Cartilage pieces were taken at random, weighed and distributed into the different wells of multiwell culture plates (typically between 30 and 60 mg tissue/well). Extra pieces were not cultured but stored at −20° C. in order to assess the initial proteoglycans (PG) and HA contents of the cartilage. Culture medium supplemented with 20% (v/v) foetal calf serum (culture medium A) was then added to each well and the culture plates were placed in a 90%: 10% (v/v) air: CO2 humidified incubator for 48 h at 37° C.
(§3) For each experiment the cartilage from one individual was used and tissue cultures were conducted in triplicate: that is, for the control culture as well as for each HA, Acetyl-carnitine (ALC) or HA+ALC, 3 cartilage explants were cultured separately. Reported values are the mean of the triplicate cultures.
After 2 day of culture, the culture medium was aspirated and the explants were washed 3 times with 1 ml of DMEM. Explants were resuspended in 5% FCS culture medium (1 ml 50 mg^−1 tissue) supplemented with ^3H-glucosamine (50 μCi ml^−1) (culture medium B). To each well, a solution of HA, Acetyl-carnitine (ALC) or HA+ALC, was added ([…] in culture medium) to achieve the final concentration of 100 μg of HA and 100 μg of ALC. Control culture received medium alone. Culture wells were then incubated for 12 h. […]
(§4) The Econo-Pak Q column (5 ml) was pre-equilibrated in buffer A at a flow rate of 2 ml min^−1. […] Fractions of 2 ml were collected and assayed for radioactivity. […]

The subject of test [4] is ornithinedecarboxylase. The experiment in a line: Increase of ornithinedecarboxylase activity induced by theleocidin in skin. It counts as in vivo, mice. The settings on record: epidermis five hours after. Here is the method: These skin alterations increase the ornithinedecarboxylase enzyme, and this increase is related to the severity of the induced cutaneous damage.
In these experiences, theleocidin is injected on mice back shaved skin at a dosage of 5 mcg/mouse dissolved in 0.2 cc of solution.
HA and AC either administered alone, or together or in the form of a complex according to the invention, are spread five minute's before theleocidin on the backs of the animals. Ornithinedecarboxylase is dosed on the homogenised epidermis of the animals five hours after the theleocidin injection, according to the method by O'Brien and Nakadate (O'Brien T. G., Cancer Res., 35, 1662, 1975—Nakadate T. Cancer Res., 42, 2841, 1982). Protein concentration of an epidermis extract is evaluated following the method described by Lowry (Lowry O. H., J. Biol. Chem., 193, 265, […]).

The subject of test [5] is trophic ulcers of lower limbs. The experiment in a line: Clinical trial in trophic ulcers of lower limbs, topical treatment. Type of test: in vivo, human. The settings on record: for number of patients with VERY GOOD result: 30 patients; for overall results compared with the combination (in words): same treatment time. How it is done:
The used protocol is the following one:
1) Topical administrations of a combination of hyaluronic acid and carnitine (1:1 by weight), or of carnitine alone or of hyaluronic acid alone, previous humidification of the lesion with saline for a time of 10 minutes. In the first treatments, it is possible to use hyaluronic acid at a higher concentration than carnitine, to promote ulcer cleansing. In the following treatments, such concentrations of the two molecules have been used as to better make use of the role of carnitine in normalizing tissue trophism. Treatment usually started during hospitalization and was subsequently continued at the nalgesic therapy clinic.
Patients enrolled in this trial came from Medicine and Surgery Departments, where they unsuccessfully received various medical treatments (mesoglycan, Connectivine, mucopolysaccharides).
18 females and 12 males were treated, of age from 62 to 80 years, with trophic ulcers of various size and at different sites, anyhow on limbs or feet.
Results were scored as follows: VERY GOOD, when the ulcer healed completely; GOOD, when an at least 50% reduction of the lesion was attained; NULL, when no significant changes of the lesion occurred after 30 day-treatment.

Test [6] relates to cartilage explants. Briefly: Net loss of labelled PG and HA from cartilage explants (chase studies). Type of test: cell-based, human. How it is done:
as §1, §2, §3
After one day of culture in medium A, the cartilage pieces were aspirated free of medium, washed 3 times with 1 ml of DMEM, resuspended in culture medium B (1 ml 50 mg^−1 tissue) and cultured for 12 h. After pulse labelling, the cartilage pieces were washed with DMEM and resuspended in culture medium A. Medium alone or the appropriate molecules (HA, ALC or HA+ALC) dissolved in medium were added to each well (10 μl ml^−1) as stated above and a non-radioactive chase period was conducted for 24 h. […]
as §4

Setting [7] is: 100 μg of HA and/or 100 μg of ALC, 12 h pulse.

Regarding hyaluronic acid [HA], in test [1] (10 mg spread on skin before dithranol 20 mcg intradermal), the “% inhibition of phlogistic area compared with controls” value amounted to 39 ± 1.6%. In addition, the “% inhibition of phlogistic area compared with controls” value in test [1] (50 mg spread on skin before dithranol 20 mcg intradermal) is recorded as 38 ± 2.9%. In addition, in test [1] (dose not stated), the “inhibition of the inflammation area induced by dithranol” value was “about 30%”. Besides, in test [2], the “symptoms and barrier function of corneal epithelium (in words)” value is reported as “did not provide significant advantages”. In addition, in test [3] (setting [7]), the “HA synthesis d.p.m. [^3H] HA × 10^3/h/mg OH/proline” value was 4.5 ± 0.93 d.p.m. [^3H] HA × 10^3/h/mg OH/proline and the “PG synthesis d.p.m. [^3H] PG × 10^3/h/mg OH/proline” value was 39.2 ± 9.2 d.p.m. [^3H] PG × 10^3/h/mg OH/proline. Besides, the “PG and HA synthesis (in words)” value in test [3] (text summary of Table 4) was “slight increase”. Also, the ornithinedecarboxylase activity in test [4] (10 mg spread five minutes before theleocidin 5 mcg/mouse) is given as 21 ± 2.8 nmol of CO2/60 min./mg protein. Besides, the ornithinedecarboxylase activity in test [4] (50 mg spread five minutes before theleocidin 5 mcg/mouse) is given as 31 ± 4.1 nmol of CO2/60 min./mg protein. In test [5] (30 day-treatment), the “patients with GOOD result (at least 50% reduction of the lesion)” value is 16% and the “number of patients with VERY GOOD result” value was “in no patients”. Besides, the “overall results compared with the combination (in words)” value in test [5] was “remarkably poorer”. The “net loss of labelled PGs and HA (in words)” value in test [6] (24 h chase, Table 5) is reported as “reduced only the net loss of labelled HA”. Also, in test [6] (24 h non-radioactive chase), the “% of radiolabelled molecules recovered in the media, [^3H] HA Loss/24 h” value is reported as 28.0 ± 6.09% and the “% of radiolabelled molecules recovered in the media, [^3H] PG Loss/24 h” value worked out at 20.1 ± 7.5%.
As to `C[N+](C)(C)C[C@H](O)CC(=O)[O-]` [L-Carnitine, L-carnitine], the “number of patients with VERY GOOD result” value in test [5] (30 day-treatment) was “in no patients”. Further, in test [5], the “overall results compared with the combination (in words)” value is given as “remarkably poorer”.
